assay: gradient 5% acetonitrile 3 min, to 50% in 2 min, to 85% in 15 min, held 3 min, 100 µL/min; details: column: Zorbax Extend-C18 2.1 x 50 mm; eluents: water / acetonitrile, 0.1% formic acid
Summary of the method: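 A Zorbax Extend-C18 column (2.1 × 50 mm, 1.8 μm) run at 100 μL/min with water and acetonitrile, both containing 0.1% formic acid, separated mixtures of ~100 pure standards. The HPLC was coupled to a quadrupole time-of-flight mass spectrometer operated in positive and negative ionization mode, with dead and dwell volumes of 40 μL and 900 μL. Each retention time was taken from a computationally picked adduct peak that was then manually inspected.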

SMILES	RP-LC retention time [s]
Cc1c(C(=O)N2CCN=C2SCc2cccnc2)cccc1[N+](=O)[O-]	577
Cc1cc(-c2nnc(C3CCC3)o2)c(C)n1CC(=O)NCc1cc(F)cc(F)c1	864
CCC1CN2C=NC(N3CCN(C(=O)c4nn(CC)cc4Cl)CC3)=CC2=N1 (centres undefined)	602
COc1cccc(NC(=O)Nc2c(-c3ccsc3)nc3ccccn23)c1	639
Cc1cc2c(c(=O)n(-c3ccc(F)cc3)c(=O)n2CC(=O)Nc2cccc(C(F)(F)F)c2)n1C	933
CCOC(=O)C1CCN(C(=O)C2CCN(c3cncnc3N(C)C)CC2)CC1	603
COc1ccc(OC)c(S(=O)(=O)N2CCCC(C(=O)NCCC(C)C)C2)c1 (centres undefined)	863
COc1ccc2c(c1)C1(CCN(C(=O)Nc3ccc(F)cc3)C1)C(=O)N2 (centres undefined)	683
COCCCn1c(=O)c2ccccc2n(Cc2nc(-c3cccc(C)c3)no2)c1=O	855
Cc1c(C(N)=O)nnn1-c1ccccc1	645
O=C1CC(c2noc(-c3ccc(F)cc3)n2)CN1c1ccc(F)cc1 (centres undefined)	961
O=S(=O)(c1cccnc1)N1CCCn2nc(-c3cccc(F)c3)cc2C1	698
Cc1ccc(Nc2cc(N3CCC(C(=O)N4CCSCC4)CC3)ncn2)cc1	682
CCNC(=O)c1nnc(-c2ccc(S(=O)(=O)N3CCCC3)cc2)o1	753
COCCCNC(=O)c1c(C)sc2ccn(Cc3ccc(F)cc3)c(=O)c12	746
CCOc1cc(C(=O)Nc2ccc(F)cc2F)nc2c(F)cccc12	1350
Cc1ccc(Cl)cc1NC(=O)C1CC(=O)N(CCc2c[nH]c3ccc(F)cc23)C1 (centres undefined)	875
Cc1nn(-c2ccccc2)c(C)c1/C=N/N1CCN(Cc2ccccc2)CC1	687
O=C(NCc1ccc2c(c1)OCO2)C1CCCN(c2nccn3nc(-c4ccccc4Cl)cc23)C1 (centres undefined)	895
CCc1ccc(NC(=O)Cn2c(=O)n(-c3ccccc3)c(=O)c3c2cc(C)n3C)cc1	886

SMILES	RP-LC retention time [s]
CC1=C(c2ccc(F)cc2)S(=O)(=O)N=C1N1CCCN(C(=O)C(C)(C)C)CC1	814
O=C(O)c1cc(-c2cccs2)[nH]c(=O)n1	551
Cc1ccsc1CN1CCc2nc(N3CCN(c4ccc(F)cc4)CC3)ncc2C1	734
O=C(NC1CCCC1)c1nc(C(=O)N2CCN(c3ccccc3F)CC2)cs1	940
O=C(NCCN1CCCCC1)C1CCN(c2nccnc2Sc2ccccc2)CC1	666
Cc1ccc(N2CCC(NC(=O)Nc3cc(C)ccc3C)C2=O)cc1 (centres undefined)	618
C=CCN1C(=O)COc2ccc(-c3nc(NC(=O)C(CC)CC)sc3C)cc21	1050
CCCC1(CO)CCCN1C(=O)c1ccc2[nH]ccc2c1 (centres undefined)	745
Cc1cccc(NC(=O)C2CC(=O)N(c3n[nH]c4cccc(F)c34)C2)c1 (centres undefined)	759
O=C(Nc1ccccc1F)NC1CCN(C(=O)N2C[C@H]3C[C@H](C2)[C@H]2CCCC(=O)N2C3)CC1	677
Cn1nc(C(=O)N2CCCC(C(=O)NC3CC3)C2)c2c1CCN(C(=O)c1ccco1)C2 (centres undefined)	594
CN(C)c1ccc(CNC(=O)C2CCN(S(=O)(=O)c3ccc4c(c3)CCCC(=O)N4)CC2)cc1	607
COc1ccc(-c2csc(NC(=O)Cn3c(=O)oc4ccccc43)n2)cc1	933
Cc1nsc2ncc(C(=O)N3CCOCC3)c(N3CCC(C(=O)Nc4ccc(F)cc4Cl)CC3)c12	811
CC(C)C(NC(=O)c1ccc(CN2C(=O)C3CCCN3C(=O)c3ccccc32)cc1)c1cccs1 (centres undefined)	857
CCOC(=O)C(=CNc1ccccc1Cl)C(=O)OCC	1130
CCCCCC(=O)C(=O)c1ccc(O)cc1O	819
CCn1cc(S(=O)(=O)N2C[C@@H](COC)[C@H](c3ccncc3)C2)cn1	625
CC(C)c1nc2cc3c(cc2n1CC(=O)Nc1ccc2c(c1)OCCO2)OCCO3	654
CN1C(=O)CC[C@]2(C(=O)NCc3ccc(F)c(Cl)c3)CCCC[C@@H]12	718

SMILES	RP-LC retention time [s]
Cc1cccc2c(C(=O)NCC(C)C)c3c(nc12)CCC3	688
CC(C)CC1c2nccn2CCCN1C(=O)c1cc(C2CC2)[nH]n1 (centres undefined)	614
O=C(NCCc1cccs1)c1cccc2c1CCN2C(=O)Nc1ccccc1	895
CC1=C(c2ccccc2)S(=O)(=O)N=C1N1CCCN(C(=O)NCc2ccccc2)CC1	843
Fc1ccccc1N1CCN(c2ncnc3sc4c(c23)CCC4)CC1	1150
CCc1cccc(NC(=O)Cn2ncc3c(N4CCN(c5ccccn5)CC4)ncnc32)c1	655
CCCNC(=O)c1cnn(-c2cc(-c3nc(C(C)(C)C)no3)ccn2)c1C	961
CCc1nc2cc(-c3noc(-c4cc(F)ccc4Cl)n3)ccc2o1	1270
CCOc1ccccc1N1CCN(c2cc(C(=O)O)c3cc(NC(=O)C4CCCC4)ccc3n2)CC1	638
CN(C)c1ccc(CNC(=O)Cn2cc(-c3nnco3)c3ccccc32)cc1	615
CCOC(=O)c1c(-c2ccc(OC)c(OC)c2)csc1NC(=O)CN1CCCC1	566
CCc1ccc(CNC(=O)CCC2CCCN(S(=O)(=O)c3ccccc3C)C2)cc1 (centres undefined)	1070
Nc1ncnc(N2CCN(C(c3ccccc3)c3ccccc3)CC2)c1[N+](=O)[O-]	698
CCCc1noc(-c2cccnc2N2CCCN(Cc3ccc(F)cc3)CC2)n1	729
Cc1cc(NC(=O)C(=O)NCC(c2cn(C)c3ccccc23)N(C)C)no1 (centres undefined)	572
COc1cc(OC)c(NC(=O)N2CCCC(Cn3cnc4cccnc43)C2)cc1Cl (centres undefined)	703
NS(=O)(=O)c1ccc(CCNC(=O)c2csc(-c3cnccn3)n2)cc1	622
COc1ccc(N2CCN(S(=O)(=O)c3cn(C)nc3C)CC2)cc1	719

Next, values leading:

RP-LC retention time [s]	SMILES
743	CCOc1ccc(S(=O)(=O)N2CCC[C@@H]2C(=O)NCc2csc(C)n2)cc1
858	O=C(C1=CN(c2ccc(Cl)cc2)c2cc(F)ccc2S1(=O)=O)N1CCCC1
621	CCC1CCCCN1CCNC(=O)CCc1cc2ccc(C)cc2[nH]c1=O (centres undefined)
905	CCCCN(CCCC)C(=O)C1CCN(S(=O)(=O)c2ccc3c(c2)CCCC(=O)N3)CC1
1140	O=C(c1ccc(Br)o1)N1CCN(c2nc3ccccc3nc2C(F)(F)F)CC1
1060	CCCN(CCC)S(=O)(=O)c1ccc(Br)c(OC)c1
629	CC(C)(O)CC[C@@H](O)[C@](C)(O)[C@H]1CC[C@@]2(O)C3=CC(=O)[C@@H]4C[C@@H](O)[C@@H](O)C[C@]4(C)[C@H]3CC[C@]12C
1050	COc1ccc(/C=C2\COc3ccc(C)cc3C2=O)cc1O
695	CC(C)c1ccc(-n2nc(N3CCN(C(=O)CCC(=O)N4CCOCC4)CC3)ccc2=O)cc1
666	CC(C)=CCOc1cc(O)c2c(=O)cc(-c3ccccc3)oc2c1
542	COC(=O)N1CCN(CCNC(=O)c2cccc3ccccc23)CC1
911	CCc1ccc(S(=O)(=O)N(C)CC2CCOCC2)cc1
695	O=C(CNC(=O)c1c[nH]c2ccccc12)Nc1cc(Cl)ccc1O
986	CCCOc1ccc(S(=O)(=O)n2cccn2)cc1C
981	COc1cccc(-c2ccc(=O)n(CCc3nc(-c4ccc(F)cc4)no3)n2)c1
704	CSCc1nnc(NC(=O)c2ccc(S(=O)(=O)N3CC(C)OC(C)C3)cc2)o1 (centres undefined)

RP-LC retention time [s]	SMILES
884	O=C(C1CCCN(c2ccc3cc(S(=O)(=O)N4CCCC4)ccc3n2)C1)N1CCc2ccccc21 (centres undefined)
811	Cc1nn(-c2ccccc2)c2c1N(CC(=O)NCCC1=CCCCC1)C(=O)CS2
1190	FC(F)(F)c1nnc2c(Sc3ccccc3)nc3ccc(Cl)cc3n12
728	COc1ccc(CC(=O)NC2CCN(c3cc(-c4ccc(Cl)cc4)[nH]n3)C2)cc1OC (centres undefined)
682	O=C(c1cccnc1)N1CCC2(CC1)N=C(c1ccc(Cl)cc1)NO2
680	O=C(Cn1c(-c2cccs2)cc2cc(F)ccc21)NCCN1CCOCC1
1050	O=C(Nc1cnc(-c2ccccc2)nc1)c1cccc(Cl)c1
727	CSc1ccccc1NC(=O)C(=O)NCC1(CO)CC1
1050	Cc1oc(-c2ccc(C(=O)NCCc3ccco3)cc2)nc1CN1CCc2ccccc21
726	O=C(c1ccc(F)cc1)N1CCCC1c1nc(-c2ccccc2)n[nH]1 (centres undefined)
646	Cc1ccc2c(=O)c3c([nH]c2c1C)CCN(CC(=O)Nc1ccc(F)c(F)c1)C3
615	O=S(=O)(c1ccc(Br)cc1)N1CCc2nc[nH]c2C1
1070	O=C(c1cc(Cl)ccc1Cl)N(CCc1cccs1)C1CC1
696	COc1ccc(CNC(=O)c2cc3c(s2)CCN(C(C)=O)C3)cc1
1030	Cc1ccc(S(=O)(=O)Cc2cccc(-c3nc(-c4ccc5c(c4)oc(=O)n5C)no3)c2)cc1

— the METLIN SMRT retention time set (Domingo-Almenara et al. 2019)
